# Assay results taken from EP1144402B1, “SUBSTITUTED OXIMES AND HYDRAZONES AS NEUROKININ ANTAGONISTS” (SCHERING CORPORATION, priority 1998, dated 2000).
# pKi: −log10 of the molar value.
# Tests used:
# NK2 receptor = target: T1, NK2 receptor (Homo sapiens, UniProt P21452); test: neurokinin receptor binding assay (NK2)
# T1 sequence (P21452 1-398): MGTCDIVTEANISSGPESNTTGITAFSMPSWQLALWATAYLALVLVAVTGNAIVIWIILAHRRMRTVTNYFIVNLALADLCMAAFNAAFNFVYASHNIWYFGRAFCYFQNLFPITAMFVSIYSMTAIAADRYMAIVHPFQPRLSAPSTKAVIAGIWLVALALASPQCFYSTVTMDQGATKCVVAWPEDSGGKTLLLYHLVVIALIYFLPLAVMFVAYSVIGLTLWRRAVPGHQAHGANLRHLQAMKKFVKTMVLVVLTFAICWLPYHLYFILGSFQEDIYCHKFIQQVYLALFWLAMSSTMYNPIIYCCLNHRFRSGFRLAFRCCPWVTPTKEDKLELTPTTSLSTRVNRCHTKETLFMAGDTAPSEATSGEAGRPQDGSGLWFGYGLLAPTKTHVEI
# Text: (§1) The in vitro and in vivo activity of the compounds of formula I can be determined by various procedures known in the art, such as a test for their ability to inhibit the activity of the NK1 agonist Substance P, an isolated hamster trachea NK2 assay, a test of the effect of NK1 antagonists on Substance P-induced airway microvascular leakage, measurement of NK2 activity in vivo in guinea pigs, measurement of bronchoconstriction due to NKA, and neurokinin receptor binding assay(s). NK3 activity is determined by following a procedure similar to that described in the literature, e.g., Molecular Pharmacol., 48 (1995), p. 711-716. Typical procedures for determining NK1 and NK2 activity are described in U.S. 5,696,267, incorporated herein by reference.
# (§2) % Inhibition of neurokinin agonist activity is the difference between the percent of maximum specific binding (MSB) and 100%. The percent of MSB is defined by the following equation, wherein "dpm" is disintegrations per minute: % MSB =((dpm of unknown) - (dpm of nonspecific binding))/((dpm of total binding) - (dpm of nonspecific binding))X 100 [formula]
# Using the test procedures known in the art, the following data (% inhibition or Ki) were obtained for preferred and/or representative compounds of formula I: […]
# NK1 receptor = NK1 receptor (Homo sapiens, UniProt P25103); test: neurokinin receptor binding assay (NK1)
# Text: as §1, with “711-716.” for “711-716. Typical procedures for determining NK1 and NK2 activity are described in U.S. 5,696,267, incorporated herein by reference.”
# as §2
# NK1 receptor, sequence (P25103 whole entry, species assumed): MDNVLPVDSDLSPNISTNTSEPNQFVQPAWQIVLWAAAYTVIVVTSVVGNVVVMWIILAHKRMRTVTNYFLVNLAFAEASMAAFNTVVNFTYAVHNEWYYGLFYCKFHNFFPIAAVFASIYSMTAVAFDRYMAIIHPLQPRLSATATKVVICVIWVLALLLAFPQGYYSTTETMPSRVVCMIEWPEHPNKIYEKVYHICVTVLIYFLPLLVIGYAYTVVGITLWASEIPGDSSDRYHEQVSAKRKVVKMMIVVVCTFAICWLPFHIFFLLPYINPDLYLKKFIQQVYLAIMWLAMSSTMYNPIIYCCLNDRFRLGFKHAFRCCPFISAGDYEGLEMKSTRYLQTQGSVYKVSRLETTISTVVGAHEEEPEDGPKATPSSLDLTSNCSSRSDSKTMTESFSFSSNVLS
compound,measurement,setting,value
CO/N=C(\CN(C)C(=O)c1cc(Cl)cc(Cl)c1)[C@H](CCN1CCC(N2CCCN(Cc3nn[nH]n3)C2=O)CC1)c1ccc(Cl)c(Cl)c1 [Example 6S],pKi,NK2 receptor,9.05
same,pKi,NK1 receptor,9.00
CO/N=C(\CN(C)C(=O)c1cc(Cl)cc(Cl)c1)[C@H](CCN1CCC(N2CCCN(CC(C)(C)O)C2=O)CC1)c1ccc(Cl)c(Cl)c1 [Example 6K],pKi,NK2 receptor,9.10
CO/N=C(\CN(C)C(=O)c1cc(Cl)cc(Cl)c1)[C@H](CCN1CCC(n2c(=O)[nH]c3ccccc32)CC1)c1ccc(Cl)c(Cl)c1 [Example 18A],pKi,NK2 receptor,9.00
same,pKi,NK1 receptor,8.92
